What was measured:
ancestral SARS-CoV-2 = experiment: microbe, parasite or virus in culture; type: cell-based; conditions: Severe acute respiratory syndrome coronavirus 2, Vero, 24 h, read-out: IC50, inhibition of SARS-CoV-2 infection
[1] = tested on: S protein / ACE2 interaction; conditions: previous study; cited from earlier work

| Structure (SMILES) | IC50 (ancestral SARS-CoV-2) | inhibition of the interaction between the S protein and ACE2 [1] |
| --- | --- | --- |
| CCN(CC)CCCC(C)Nc1ccnc2cc(Cl)ccc12 (stereo not drawn) [chloroquine] | 5.56 µM |  |
| C[C@@H]1O[C@@H](O[C@H]2[C@H](OC(=O)[C@]34CCC(C)(C)C[C@H]3C3=CC[C@@H]5[C@@]6(C)C[C@H](O)[C@H](O[C@@H]7O[C@H](CO)[C@@H](O)[C@H](O)[C@H]7O)C(CO)(CO)[C@@H]6CC[C@@]5(C)[C@]3(C)C[C@H]4O)OC[C@H](O)[C@@H]2O)[C@H](O)[C@H](O)[C@H]1O[C@@H]1OC[C@@H](O)[C@H](O[C@@H]2OC[C@](O)(CO)[C@H]2O)[C@H]1O [Platycodin D, platycodin D] |  | does not inhibit the interaction between the S protein and ACE2 |
| CCC(CC)COC(=O)[C@H](C)N[P@](=O)(OC[C@H]1O[C@@](C#N)(c2ccc3c(N)ncnn23)[C@H](O)[C@@H]1O)Oc1ccccc1 [remdesivir] | 4.67 µM |  |

From paper PMC9233891 (Bioorganic Chemistry, 2022)
